# Reference: patent publication US9884063B2, “Amido-substituted azole compounds” (Bayer Pharma Aktiengesellschaft, priority 2014, dated 2018)
# pIC50: −log10 of the molar value. Structures can show the parent of a compound that is named as a salt.
# Key:
# [1] = tested on: HEK293 FOP control reporter cell line; assay: HEK293 FOP Assay (FOP control vector luciferase reporter); type: cell-based; conditions: Homo sapiens, HEK293 FOP control reporter cell line, 16 hours incubation, compound dilution series 50 μM to 15 nM
# Procedure, shortened: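 Stable HEK293 line carrying the FOP vector (randomized, non-functional TCF sites; Geneticin-selected) was run in parallel with the TOP line. Cells were plated 24 h ahead at 10000/well and given recombinant human Wnt-3a at 2500–5 ng/ml. Compounds were tested at 50 μM–15 nM (3.16-fold steps) in CAFTY buffer, pH 7.4, with 2 mM Ca2+ and 0.01% BSA.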
# [2] = tested on: wildtype Wnt signaling cascade; assay: HEK293 TOP Assay (Super TopFlash luciferase reporter, Wnt-3a stimulated); type: cell-based; conditions: Homo sapiens, HEK293 TOP reporter cell line, Wnt-3a at EC50, 16 hours incubation, compound dilution series 50 μM to 15 nM
# Procedure, shortened: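 HEK293 cells stably carrying Super TopFlash (TOP) or FOP reporter, stimulated with recombinant human Wnt-3a (2500–5 ng/ml, two-fold steps). Both lines incubated in parallel with compound from 50 μM to 15 nM (3.16-fold) in CAFTY buffer pH 7.4 with 2 mM Ca2+ and 0.01% BSA; selectivity judged TOP vs FOP.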
# TNKS1 = biological target: T1, TNKS1 (Homo sapiens, UniProt O95271); assay: Modified TNKS1 Assay 3 (BPS kit #80573, biotin-NAD+, 96 well); type: biochemical; conditions: human TNKS1, BPS kit #80573, 96 well
# T1 sequence (O95271 1-1327): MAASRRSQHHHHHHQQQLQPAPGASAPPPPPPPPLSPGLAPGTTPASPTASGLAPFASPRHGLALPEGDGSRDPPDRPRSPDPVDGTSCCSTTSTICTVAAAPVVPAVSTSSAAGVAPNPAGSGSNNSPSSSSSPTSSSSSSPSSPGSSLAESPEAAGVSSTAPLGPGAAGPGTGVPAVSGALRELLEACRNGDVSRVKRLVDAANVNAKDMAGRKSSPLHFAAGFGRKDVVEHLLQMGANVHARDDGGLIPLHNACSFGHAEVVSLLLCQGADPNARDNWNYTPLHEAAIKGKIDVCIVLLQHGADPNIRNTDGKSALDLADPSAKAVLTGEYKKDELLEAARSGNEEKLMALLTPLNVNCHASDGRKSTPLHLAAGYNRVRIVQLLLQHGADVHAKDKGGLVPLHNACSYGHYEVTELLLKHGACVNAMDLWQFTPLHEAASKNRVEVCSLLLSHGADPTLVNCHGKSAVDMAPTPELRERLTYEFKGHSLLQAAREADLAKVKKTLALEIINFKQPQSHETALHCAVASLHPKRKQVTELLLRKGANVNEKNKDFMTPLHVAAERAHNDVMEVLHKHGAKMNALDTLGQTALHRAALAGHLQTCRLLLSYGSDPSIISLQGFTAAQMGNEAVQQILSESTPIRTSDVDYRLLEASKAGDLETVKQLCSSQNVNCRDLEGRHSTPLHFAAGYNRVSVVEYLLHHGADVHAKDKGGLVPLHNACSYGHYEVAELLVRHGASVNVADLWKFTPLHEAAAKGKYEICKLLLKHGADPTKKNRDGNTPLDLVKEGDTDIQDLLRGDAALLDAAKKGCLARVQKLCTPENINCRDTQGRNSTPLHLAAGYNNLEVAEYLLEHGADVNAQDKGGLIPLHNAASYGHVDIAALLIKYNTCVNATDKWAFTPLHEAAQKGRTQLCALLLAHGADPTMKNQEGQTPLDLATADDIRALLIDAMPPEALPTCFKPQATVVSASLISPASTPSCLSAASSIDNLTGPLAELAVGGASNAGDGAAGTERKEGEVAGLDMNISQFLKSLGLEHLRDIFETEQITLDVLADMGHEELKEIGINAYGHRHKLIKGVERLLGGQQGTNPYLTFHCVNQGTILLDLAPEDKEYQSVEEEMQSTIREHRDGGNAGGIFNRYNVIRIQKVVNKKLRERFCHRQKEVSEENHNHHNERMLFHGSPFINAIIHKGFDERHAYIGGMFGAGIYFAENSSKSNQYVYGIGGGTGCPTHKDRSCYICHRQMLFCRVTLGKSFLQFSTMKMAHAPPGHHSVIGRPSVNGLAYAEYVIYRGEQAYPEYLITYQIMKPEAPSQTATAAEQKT
# Experimental: The potency of the compounds against human TNKS1 according to the invention was assessed using a commercially available biotin/streptavidin binding assay kits from BPS Bioscience, San Diego, USA (Catalog #80573 for TNKS1). The incorporation of a biotin-labeled NAD+ during the […] catalyzed ribosylation of a suitable protein substrate was detected using with a streptavidin-HRP coupled chemi-luminescent readout. The intensity of the readout signal is proportional to the incorporated NAD^+. Inhibition of TNKS1 leads to a decreased incorporation of NAD^+ and consequently to a lower readout signal intensity in the corresponding TNKS1 assays. The concentration of a test compound that inhibits the enzyme activity by 50% (corresponds to half of the normed readout signal intensity) is reported as IC50. The assay was conducted in a 96 well MTP format according to the manufacturer's protocol and using a BMG Pherastar MTP reader [BMG-Labtech, Offenburg, Germany].
Structure (SMILES),pIC50 [1],"pIC50 ([2]; HEK293, 16 h)",pIC50 (TNKS1),"pIC50 ([1]; HEK293, 16 h)",pIC50 [2]
"CN1CC2(C1)CN(C(=O)c1nc[nH]c1C(=O)Nc1ccc(NC(=O)c3cc(F)c(F)cc3Cl)cc1)C2 [Example 50, N N-{4-[(2-chloro-4,5-difluorobenzoyl)amino]phenyl}-4-[(6-methyl-2,6-diazaspiro[3.3]hept-2-yl)carbonyl]-1H-imidazole-5-carboxamide]",4.89,6.92,6.89,–,–
"CN(C)CCNC(=O)c1nc[nH]c1C(=O)Nc1ccc(NC(=O)c2ccc(F)cc2Cl)nc1 [Example 109, N^5-{6-[(2-chloro-4-fluorobenzoyl)amino]pyridin-3-yl}-N^4-[2-(dimethylamino)ethyl]-1H-imidazole-4,5-dicarboxamide]",4.37,6.85,9.00,–,–
"O=C(Nc1ccc(NC(=O)c2[nH]cnc2C(=O)NCCN2CCCCC2)cn1)c1ccccc1Cl [Example 114, N^5-{6-[(2-chlorobenzoyl)amino]pyridin-3-yl}-N^4-[2-(piperidin-1-yl)ethyl]-1H-imidazole-4,5-dicarboxamide]",–,7.15,> 9.30,–,–
"O=C(Nc1ccc(NC(=O)c2[nH]cnc2C(=O)NCCN2CCCCC2)cc1)c1ccc(F)cc1Cl [Example 127, N^5-{4-[(2-chloro-4-fluorobenzoyl)amino]phenyl}-N^4-[2-(piperidin-1-yl)ethyl]-1H-imidazole-4,5-dicarboxamide hydrochloride]",–,–,8.70,4.30,8.00
"CC(C)(C)NC(=O)c1[nH]cnc1C(=O)Nc1ccc(NC(=O)c2ccc(F)cc2Cl)cc1 [Example 133, N^5-tert-butyl-N^4-{4-[(2-chloro-4-fluorobenzoyl)amino]phenyl}-1H-imidazole-4,5-dicarboxamide]",5.06,6.37,6.70,–,–
"O=C(Nc1ccc(NC(=O)c2nc[nH]c2C(=O)NCCN2CCC(O)CC2)cc1)c1ccc(F)cc1Cl [Example 212, N^4-{4-[(2-chloro-4-fluorobenzoyl)amino]phenyl}-N^5-[2-(4-hydroxypiperidin-1-yl)ethyl]-1H-imidazole-4,5-dicarboxamide]",–,7.15,8.30,–,–
"COC1CCN(CCNC(=O)c2[nH]cnc2C(=O)Nc2ccc(NC(=O)c3ccc(F)cc3Cl)cc2)C1 (stereo not shown) [Example 265, N^4-{4-[(2-chloro-4-fluorobenzoyl)amino]phenyl}-N^5-[2-(3-methoxypyrrolidin-1-yl)ethyl]-1H-imidazole-4,5-dicarboxamide]",–,6.92,8.15,–,–
"O=C(Nc1ccc(NC(=O)c2nc[nH]c2C(=O)NCCN2CCC[C@@H](O)C2)cc1)c1ccc(F)cc1Cl [Example 272, N^4-{4-[(2-chloro-4-fluorobenzoyl)amino]phenyl}-N^5-{2-[(3R)-3-hydroxypiperidin-1-yl]ethyl}-1H-imidazole-4,5-dicarboxamide]",–,6.92,7.15,–,–
"O=C(Nc1ccc(NC(=O)c2nc[nH]c2C(=O)NCCCN2CCCC(O)C2)cc1)c1ccc(F)cc1Cl (stereo not shown) [Example 273, N^4-{4-[(2-chloro-4-fluorobenzoyl)amino]phenyl}-N^5-[3-(3-hydroxypiperidin-1-yl)propyl]-1H-imidazole-4,5-dicarboxamide]",4.68,5.81,7.52,–,–
"O=C(Nc1ccc(NC(=O)c2nc[nH]c2C(=O)NCCN2CCC[C@H](F)C2)cc1)c1ccc(F)cc1Cl [Example 276, N^4-{4-[(2-chloro-4-fluorobenzoyl)amino]phenyl}-N^5-{2-[(3S)-3-fluoropiperidin-1-yl]ethyl}-1H-imidazole-4,5-dicarboxamide]",4.51,6.96,7.30,–,–
"CC(C)(N)CCNC(=O)c1[nH]cnc1C(=O)Nc1ccc(NC(=O)c2ccccc2Cl)cc1 [Example 283, N^5-(3-amino-3-methylbutyl)-N^4-{4-[(2-chlorobenzoyl)amino]phenyl}-1H-imidazole-4,5-dicarboxamide hydrochloride salt]",–,–,6.96,4.30,6.08
"CC(C)[C@@H](CO)NC(=O)c1nc[nH]c1C(=O)Nc1ccc(NC(=O)c2ccc(F)cc2Cl)cc1 [Example 379, N^5-{4-[(2-chloro-4-fluorobenzoyl)amino]phenyl}-N^4-[(2S)-1-hydroxy-3-methylbutan-2-yl]-1H-imidazole-4,5-dicarboxamide]",–,5.49,6.72,–,–
"CCN(CC)CCNC(=O)c1nc[nH]c1C(=O)Nc1ccc(NC(=O)c2ccc(F)cc2Cl)cc1 [Example 382, N^5-{4-[(2-chloro-4-fluorobenzoyl)amino]phenyl}-N^4-[2-(diethylamino)ethyl]-1H-imidazole-4,5-dicarboxamide]",–,6.92,7.70,–,–
"CN1CCCC1CCNC(=O)c1nc[nH]c1C(=O)Nc1ccc(NC(=O)c2ccc(F)cc2Cl)cc1 (stereo not shown) [Example 385, N^5-{4-[(2-chloro-4-fluorobenzoyl)amino]phenyl}-N^4-[2-(1-methylpyrrolidin-2-yl)ethyl]-1H-imidazole-4,5-dicarboxamide]",–,6.51,7.30,–,–
"O=C(Nc1ccc(NC(=O)c2[nH]cnc2C(=O)NCCN2CCS(=O)(=O)CC2)cc1)c1ccc(F)cc1Cl [Example 402, N^5-{4-[(2-chloro-4-fluorobenzoyl)amino]phenyl}-N^4-[2-(1,1-dioxidothiomorpholin-4-yl)ethyl]-1H-imidazole-4,5-dicarboxamide]",–,6.77,6.59,–,–
"CN1CCC(CNC(=O)c2nc[nH]c2C(=O)Nc2ccc(NC(=O)c3ccc(F)cc3Cl)cc2)CC1 [Example 408, N^5-{4-[(2-chloro-4-fluorobenzoyl)amino]phenyl}-N^4-[(1-methylpiperidin-4-yl)methyl]-1H-imidazole-4,5-dicarboxamide]",–,6.52,7.10,–,–
"CCN1CCC(CNC(=O)c2nc[nH]c2C(=O)Nc2ccc(NC(=O)c3ccc(F)cc3Cl)cc2)C1 (stereo not shown) [Example 411, N^5-{4-[(2-chloro-4-fluorobenzoyl)amino]phenyl}-N^4-[(1-ethylpyrrolidin-3-yl)methyl]-1H-imidazole-4,5-dicarboxamide]",–,6.54,7.15,–,–
"CN(C)C(C)(C)CNC(=O)c1nc[nH]c1C(=O)Nc1ccc(NC(=O)c2ccc(F)cc2Cl)cc1 [Example 412, N^5-{4-[(2-chloro-4-fluorobenzoyl)amino]phenyl}-N^4-[2-(dimethylamino)-2-methylpropyl]-1H-imidazole-4,5-dicarboxamide]",–,6.85,7.52,–,–
